One molecule from patent US6160008A, “Pharmaceutical compositions comprising S-alkylisothiouronium derivatives” (priority 1996, dated 2000) can be followed below.

The subject of assay [1] is arterial blood pressure. Kind of assay: Influence of single intravenous injection on arterial blood pressure, heart rate and respiratory rate in anesthetized cats (Table 1, FIGS. 1-10). Type of assay: in vivo. Particulars: 5 mg/kg i.v. The method, then: Experiments were performed on 52 anesthetized (intraperitoneally with 45 mg/kg of sodium pentobarbital) cats of both genders with body mass of 2.8-4.2 kg. Arterial pressure was measured by a mercury pressure gauge; measurements were also performed by ECG. Simultaneously, the respiratory frequency was registered. The hypertensive effect was determined as percent increase relative to the initial level of systolic arterial pressure (SAP). The duration of observation was 1-3 hours; the heart rate (HR) was calculated on the basis of ECG.

Assay [2] concerns mice exposed to an oxygen pressure of 3 atm. Kind of assay: Survival under oxygen pressure of 3 atm, mice (Table 15). The class given is in vivo, F1 (CBAx57B1). The settings on record: for Number of survived animals: mice, 3 atm, 5 hours. The method, then:
Animals were exposed to oxygen under increased pressure in a hyperbaric chamber <<Mana-2≤≤ for treatment of infants above 1 year, which was adjusted for the experiments on animals. The hyperbaric chamber design permitted to create excessive pressure up to 3 atm and to observe animal behavior from outside.
The experiments were performed on males of F1 (CBAx57B1) mice line and on males of Wistar rat line. Animals were placed in the hyperbaric chamber in plastic boxes and the atmospheric air was replaced by oxygen. The period of compression-decompression was 10 minutes. The exposure of the animals to an oxygen pressure of 3 atm during a period of 2 hours caused only some increase in their motion activity. Further staying of rats and mice in those conditions led to a decrease in the motion activity, to asphyxia with short periods of excitement and cramps. The death of some animals was registered after 2.5-3 hours, 50% after 4 hours, and 75% of mice and 100% of rats were dead after 5 hours.
When the influence of Difetur and Etyron was studied, the animals were exposed to an oxygen pressure of 3 atm during 5 hours if not otherwise specified. Preparations were injected 5-10 minutes before the session.

Where [3] appears, read: listed as S-ethylisothiuronium diethylphosphate.

Molecules are shown by their SMILES. Entries after “also recorded” stand apart in the source; their conditions may differ.

For the molecule `CCSC(=N)N` [S-ethylisothiouronium diethylphosphate], in assay [1], the “Hypertensive activity, % (increase relative to the initial level of SAP)” value is recorded as 40%; the “Hypertensive effect in words” value is reported as “one of the most active compounds; also recorded: most active compound”; the “RR (influence on respiratory rate)” value was “increases RR”; the “Time to achieve maximum effect” value stood at 2 min. In assay [1] (given as "> SAP by", listed as S-ethylisothiuronium diethylphosphate), the “Hypertensive activity (increase of SAP)” value turned out to be 40 mm Hg. In assay [1] (setting [3]), the Duration of effect is 1 to 1.5 h; the “Hypertensive activity, % (increase relative to the initial level of SAP)” value was 40%; the “Influence on HR” value was “Bradycardia”; the “RR (influence on respiratory rate)” value is given as “Increases”. For the same molecule, in assay [2] (5 mg/kg), the “Number of survived animals” value was 25%. Further, in assay [2] (10 mg/kg), the “Number of survived animals” value worked out at 65%. Also, the “Number of survived animals” value in assay [2] (20 mg/kg) was determined as 88%. In assay [2] (mouse, in vivo), the “Oxygen protective activity compared with Etyron” value is recorded as “exceed Etyron in oxygen protective activity”.
